The source of these data is ChEMBL document CHEMBL4616668, “Discovery of a High Affinity, Orally Bioavailable Macrocyclic FXIa Inhibitor with Antithrombotic Activity in Preclinical Species” (J Med Chem, 2020).

Test system in the first data set: not listed separately
As to the kind of experiment: Half life in rat liver microsomes. Type of data set: ADME, Microsome.
Settings: not given
In general terms: Liver microsomes are a subcellular fraction often used to study metabolism.
`COC(=O)Nc1ccc2c(c1)NC(=O)[C@H](C)CCC[C@H](N1CC[C@H](c3c(F)ccc(Cl)c3F)OC1=O)c1cc-2cnc1F` showed a half-life of 6 min.
The compound `COC(=O)Nc1ccc2c(c1)NC(=O)[C@H](C)CCC[C@H](N1CCC(c3c(F)ccc(Cl)c3F)NC1=O)c1cc-2ccn1` (some centres not stated) showed a half-life of 40 min.
On the same count and under the same terms, as for `COC(=O)Nc1ccc2c(c1)NC(=O)[C@H](C)CCC[C@H](N1CC[C@H](c3c(F)ccc(Cl)c3F)OC1=O)c1ncc-2[nH]1`, the figure is 48 min.

The subject of a further data set is Plasma. As to the kind of experiment: Anticoagulant activity in human plasma assessed as activated partial thromboplastin time. It is filed as functional.
Settings: not given
Take `COC(=O)Nc1ccc2c(c1)NC(=O)[C@H](C)CCC[C@H](N1CC[C@H](c3c(F)ccc(Cl)c3F)OC1=O)c1cc-2cnc1F`: the EC1.5 came to 1.2 µM.
With `COC(=O)Nc1ccc2c(c1)NC(=O)[C@H](C)CCC[C@H](N1CCC(c3c(F)ccc(Cl)c3F)NC1=O)c1cc-2ccn1` (some centres not stated), the EC1.5 was 7.5 µM.
For the compound `COC(=O)Nc1ccc2c(c1)NC(=O)[C@H](C)CCC[C@H](N1CC[C@H](c3c(F)ccc(Cl)c3F)OC1=O)c1ncc-2[nH]1`, the EC1.5 is 0.6 µM.

Test system in another data set: not listed separately
The data set is described as follows: Apparent volume of distribution at steady-state in cynomolgus monkey at 0.5 mg/kg, iv. Type of data set: ADME, organism-based, Macaca fascicularis. Conditions: in vivo, read-out: Vdss(app).
For the compound `COC(=O)Nc1ccc2c(c1)NC(=O)[C@H](C)CCC[C@H](N1CC[C@H](c3c(F)ccc(Cl)c3F)OC1=O)c1ncc-2[nH]1`, the Vd came to 9.2 L/kg.

Test system in a further data set: not listed separately
As to the kind of experiment: AUC in cynomolgus monkey at 0.5 mg/kg, iv. It is filed as ADME, organism-based, Macaca fascicularis. To be noted: in vivo.
Take `COC(=O)Nc1ccc2c(c1)NC(=O)[C@H](C)CCC[C@H](N1CC[C@H](c3c(F)ccc(Cl)c3F)OC1=O)c1ncc-2[nH]1`: the AUC (usually concentration integrated over time) was 0.233 µM·h.

Test system in a further data set: not listed separately
As to the kind of experiment: Half life in human liver microsomes. It is filed as ADME, Microsome.
Settings: not given
`COC(=O)Nc1ccc2c(c1)NC(=O)[C@H](C)CCC[C@H](N1CC[C@H](c3c(F)ccc(Cl)c3F)OC1=O)c1cc-2cnc1F` displayed a half-life of 9 min.
Regarding `COC(=O)Nc1ccc2c(c1)NC(=O)[C@H](C)CCC[C@H](N1CCC(c3c(F)ccc(Cl)c3F)NC1=O)c1cc-2ccn1` (some centres not stated), the half-life stood at 17 min.
The compound `COC(=O)Nc1ccc2c(c1)NC(=O)[C@H](C)CCC[C@H](N1CC[C@H](c3c(F)ccc(Cl)c3F)OC1=O)c1ncc-2[nH]1` had a half-life of 55 min.

Test system in a further data set: not listed separately
The data set is described as follows: Terminal half life in Sprague-Dawley rat at 0.6 mg/kg, iv. It is filed as ADME, organism-based. Conditions: in vivo, read-out: beta t1/2 (converted).
As to `COC(=O)Nc1ccc2c(c1)NC(=O)[C@H](C)CCC[C@H](N1CC[C@H](c3c(F)ccc(Cl)c3F)OC1=O)c1ncc-2[nH]1`, the half-life was 84 min.

Test system in a further data set: not listed separately
The data set is described as follows: AUC in Sprague-Dawley rat at […], po. It is filed as ADME, organism-based. Conditions: in vivo.
`COC(=O)Nc1ccc2c(c1)NC(=O)[C@H](C)CCC[C@H](N1CC[C@H](c3c(F)ccc(Cl)c3F)OC1=O)c1ncc-2[nH]1` gave an AUC of 0.687 µM·h.

Test system in another data set: not listed separately
The data set is described as follows: Half life in dog liver microsomes. It is filed as ADME, Canis lupus familiaris, Microsome.
Settings: not given
On to `COC(=O)Nc1ccc2c(c1)NC(=O)[C@H](C)CCC[C@H](N1CC[C@H](c3c(F)ccc(Cl)c3F)OC1=O)c1cc-2cnc1F`, for which the half-life turned out to be 15 min.
Regarding `COC(=O)Nc1ccc2c(c1)NC(=O)[C@H](C)CCC[C@H](N1CCC(c3c(F)ccc(Cl)c3F)NC1=O)c1cc-2ccn1` (some centres not stated), the half-life is 27 min.
As to `COC(=O)Nc1ccc2c(c1)NC(=O)[C@H](C)CCC[C@H](N1CC[C@H](c3c(F)ccc(Cl)c3F)OC1=O)c1ncc-2[nH]1`, the half-life is 38 min.

Test system in a further data set: not listed separately
As to the kind of experiment: Apparent volume of distribution at steady-state in Beagle dog at 0.4 mg/kg, iv. Type of data set: ADME, organism-based, Canis lupus familiaris. To be noted: in vivo, read-out: Vdss(app).
On to `COC(=O)Nc1ccc2c(c1)NC(=O)[C@H](C)CCC[C@H](N1CC[C@H](c3c(F)ccc(Cl)c3F)OC1=O)c1ncc-2[nH]1`, for which the Vd came out at 5.1 L/kg.

Test system in another data set: not listed separately
The data set is described as follows: Clearance in Beagle dog at 0.4 mg/kg, iv. Type of data set: ADME, organism-based, Canis lupus familiaris. To be noted: in vivo.
Consider `COC(=O)Nc1ccc2c(c1)NC(=O)[C@H](C)CCC[C@H](N1CC[C@H](c3c(F)ccc(Cl)c3F)OC1=O)c1ncc-2[nH]1`, for which the clearance (as a rule, a measure of how efficiently the substance is removed, as volume per time) stood at 38 mL/min/kg.

Test system in the next data set: not listed separately
The data set is described as follows: Oral bioavailability in Beagle dog at 1.1 mg/kg. It is filed as ADME, organism-based, Canis lupus familiaris. Conditions: in vivo.
As to `COC(=O)Nc1ccc2c(c1)NC(=O)[C@H](C)CCC[C@H](N1CC[C@H](c3c(F)ccc(Cl)c3F)OC1=O)c1ncc-2[nH]1`, the bioavailability – broadly, the share of a dose that reaches the circulation, judged against a reference dose that is usually intravenous – is 57%.

Test system in the next data set: not listed separately
The data set is described as follows: Terminal half life in Beagle dog at 0.4 mg/kg, iv. Type of data set: ADME, organism-based, Canis lupus familiaris. To be noted: in vivo, read-out: beta t1/2 (converted).
Regarding `COC(=O)Nc1ccc2c(c1)NC(=O)[C@H](C)CCC[C@H](N1CC[C@H](c3c(F)ccc(Cl)c3F)OC1=O)c1ncc-2[nH]1`, the half-life is 114 min.

Test system in another data set: not listed separately
As to the kind of experiment: Terminal half life in cynomolgus monkey at 0.5 mg/kg, iv. It is filed as ADME, organism-based, Macaca fascicularis. To be noted: in vivo, read-out: beta t1/2 (converted).
In the case of `COC(=O)Nc1ccc2c(c1)NC(=O)[C@H](C)CCC[C@H](N1CC[C@H](c3c(F)ccc(Cl)c3F)OC1=O)c1ncc-2[nH]1`, the half-life was 84 min.

The target in a further data set is Coagulation factor XI (Homo sapiens, UniProt P03951). As to the kind of experiment: Inhibition of human factor11a using pyro-Glu-Pro-Arg-pNA(para-nitroaniline) substrate by spectrophotometry.
Chain of Coagulation factor XI (P03951 19-387 limits assumed): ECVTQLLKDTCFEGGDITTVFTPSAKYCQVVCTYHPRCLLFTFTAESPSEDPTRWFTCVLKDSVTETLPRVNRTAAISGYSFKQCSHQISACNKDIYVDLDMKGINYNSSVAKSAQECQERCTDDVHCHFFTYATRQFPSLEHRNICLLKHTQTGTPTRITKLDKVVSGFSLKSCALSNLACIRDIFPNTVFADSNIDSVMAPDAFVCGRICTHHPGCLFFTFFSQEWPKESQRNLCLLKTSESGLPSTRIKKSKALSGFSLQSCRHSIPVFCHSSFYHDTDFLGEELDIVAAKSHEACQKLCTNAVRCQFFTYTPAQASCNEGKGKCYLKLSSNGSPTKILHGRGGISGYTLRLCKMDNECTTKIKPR
Chain of Coagulation factor XI (P03951 388-625 limits assumed): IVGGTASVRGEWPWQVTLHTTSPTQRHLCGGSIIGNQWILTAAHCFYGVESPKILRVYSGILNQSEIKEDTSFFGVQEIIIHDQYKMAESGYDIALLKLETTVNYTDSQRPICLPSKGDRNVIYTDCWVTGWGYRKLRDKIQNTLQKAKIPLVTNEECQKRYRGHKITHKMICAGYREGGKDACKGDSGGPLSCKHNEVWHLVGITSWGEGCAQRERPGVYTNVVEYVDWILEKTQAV
Settings: not given
On to `COC(=O)Nc1ccc2c(c1)NC(=O)[C@H](C)CCC[C@H](N1CC[C@H](c3c(F)ccc(Cl)c3F)OC1=O)c1cc-2cnc1F`, for which the affinity, expressed as Ki, was 2.7 nM.
Turning to `COC(=O)Nc1ccc2c(c1)NC(=O)[C@H](C)CCC[C@H](N1CCC(c3c(F)ccc(Cl)c3F)NC1=O)c1cc-2ccn1` (some centres not stated), affinity was put at a Ki of 0.5 nM.
Consider `COC(=O)Nc1ccc2c(c1)NC(=O)[C@H](C)CCC[C@H](N1CC[C@H](c3c(F)ccc(Cl)c3F)OC1=O)c1ncc-2[nH]1`, for which the Ki (as a rule, a dissociation constant, usually derived from enzyme kinetics or from competition with a known ligand) is 0.7 nM.

Test system in another data set: not listed separately
As to the kind of experiment: Oral bioavailability in Sprague-Dawley rat at […]. It is filed as ADME, organism-based. To be noted: in vivo.
The compound `COC(=O)Nc1ccc2c(c1)NC(=O)[C@H](C)CCC[C@H](N1CC[C@H](c3c(F)ccc(Cl)c3F)OC1=O)c1ncc-2[nH]1` had a bioavailability of 54%.

Test system in another data set: not listed separately
As to the kind of experiment: AUC in Sprague-Dawley rat at 0.6 mg/kg, iv. Type of data set: ADME, organism-based. Conditions: in vivo.
`COC(=O)Nc1ccc2c(c1)NC(=O)[C@H](C)CCC[C@H](N1CC[C@H](c3c(F)ccc(Cl)c3F)OC1=O)c1ncc-2[nH]1` displayed an AUC of 0.52 µM·h.

Test system in another data set: not listed separately
As to the kind of experiment: Clearance in Sprague-Dawley rat at 0.6 mg/kg, iv. Type of data set: ADME, organism-based. To be noted: in vivo.
For the compound `COC(=O)Nc1ccc2c(c1)NC(=O)[C@H](C)CCC[C@H](N1CC[C@H](c3c(F)ccc(Cl)c3F)OC1=O)c1ncc-2[nH]1`, the clearance worked out at 33 mL/min/kg.

Test system in the next data set: not listed separately
As to the kind of experiment: Permeability form basolateral to apical side in human Caco2 cells. Type of data set: ADME, cell-based. To be noted: Caco-2, read-out: permeability. On the technique in general: Passage across Caco-2 layers is used to estimate intestinal permeability.
Turning to `COC(=O)Nc1ccc2c(c1)NC(=O)[C@H](C)CCC[C@H](N1CC[C@H](c3c(F)ccc(Cl)c3F)OC1=O)c1ncc-2[nH]1`, the Papp B→A is 23.8 ×10⁻⁶ cm/s.

Test system in another data set: not listed separately
The data set is described as follows: Permeability form apical to basolateral side in human Caco2 cells. To be noted: Caco-2, read-out: permeability. Type of data set: ADME, cell-based.
Take `COC(=O)Nc1ccc2c(c1)NC(=O)[C@H](C)CCC[C@H](N1CC[C@H](c3c(F)ccc(Cl)c3F)OC1=O)c1ncc-2[nH]1`: the Papp A→B is 3.8 ×10⁻⁶ cm/s.

Test system in another data set: not listed separately
As to the kind of experiment: Oral bioavailability in cynomolgus monkey at 1.5 mg/kg. To be noted: in vivo. Type of data set: ADME, organism-based, Macaca fascicularis.
In the case of `COC(=O)Nc1ccc2c(c1)NC(=O)[C@H](C)CCC[C@H](N1CC[C@H](c3c(F)ccc(Cl)c3F)OC1=O)c1ncc-2[nH]1`, the bioavailability worked out at 29%.

Test system in another data set: not listed separately
As to the kind of experiment: Half life in cynomolgus monkey liver microsomes.
Settings: not given
Type of data set: ADME, Macaca fascicularis, Microsome.
Take `COC(=O)Nc1ccc2c(c1)NC(=O)[C@H](C)CCC[C@H](N1CCC(c3c(F)ccc(Cl)c3F)NC1=O)c1cc-2ccn1` (some centres not stated): the half-life was determined as 2 min.
Compound `COC(=O)Nc1ccc2c(c1)NC(=O)[C@H](C)CCC[C@H](N1CC[C@H](c3c(F)ccc(Cl)c3F)OC1=O)c1ncc-2[nH]1` registered a half-life of 17 min.

Test system in a further data set: not listed separately
As to the kind of experiment: Apparent volume of distribution at steady-state in Sprague-Dawley rat at 0.6 mg/kg, iv. Type of data set: ADME, organism-based. To be noted: in vivo, read-out: Vdss(app).
As to `COC(=O)Nc1ccc2c(c1)NC(=O)[C@H](C)CCC[C@H](N1CC[C@H](c3c(F)ccc(Cl)c3F)OC1=O)c1ncc-2[nH]1`, the Vd worked out at 3.2 L/kg.

Test system in the next data set: not listed separately
The data set is described as follows: AUC in Beagle dog at 1.1 mg/kg, po. It is filed as ADME, organism-based, Canis lupus familiaris. To be noted: in vivo.
Consider `COC(=O)Nc1ccc2c(c1)NC(=O)[C@H](C)CCC[C@H](N1CC[C@H](c3c(F)ccc(Cl)c3F)OC1=O)c1ncc-2[nH]1`, for which the AUC was 0.446 µM·h.

Test system in a further data set: not listed separately
The data set is described as follows: AUC in Beagle dog at 0.4 mg/kg, iv. Type of data set: ADME, organism-based, Canis lupus familiaris. Conditions: in vivo.
Turning to `COC(=O)Nc1ccc2c(c1)NC(=O)[C@H](C)CCC[C@H](N1CC[C@H](c3c(F)ccc(Cl)c3F)OC1=O)c1ncc-2[nH]1`, the AUC was 0.285 µM·h.

Test system in another data set: not listed separately
The data set is described as follows: AUC in cynomolgus monkey at 1.5 mg/kg, po. It is filed as ADME, organism-based, Macaca fascicularis. Conditions: in vivo.
Compound `COC(=O)Nc1ccc2c(c1)NC(=O)[C@H](C)CCC[C@H](N1CC[C@H](c3c(F)ccc(Cl)c3F)OC1=O)c1ncc-2[nH]1` had an AUC of 0.263 µM·h.

Test system in a further data set: not listed separately
As to the kind of experiment: Clearance in cynomolgus monkey at 0.5 mg/kg, iv. Conditions: in vivo. It is filed as ADME, organism-based, Macaca fascicularis.
In turn, `COC(=O)Nc1ccc2c(c1)NC(=O)[C@H](C)CCC[C@H](N1CC[C@H](c3c(F)ccc(Cl)c3F)OC1=O)c1ncc-2[nH]1` displayed a clearance of 56 mL/min/kg.
